Assay [1] can be described thus: Inhibition of elastase release in fMLP/CB-induced human neutrophils by cell based assay. The class given is functional. As to conditions: Neutrophil.
In a further assay the test system is Neutrophil. Briefly: Inhibition of O2 generation in fMLP/CB-induced human neutrophils by cell based assay. It counts as functional.
Another assay deals with T1, Neutrophil elastase (Homo sapiens, UniProt P08246).
T1 sequence (P08246 whole entry): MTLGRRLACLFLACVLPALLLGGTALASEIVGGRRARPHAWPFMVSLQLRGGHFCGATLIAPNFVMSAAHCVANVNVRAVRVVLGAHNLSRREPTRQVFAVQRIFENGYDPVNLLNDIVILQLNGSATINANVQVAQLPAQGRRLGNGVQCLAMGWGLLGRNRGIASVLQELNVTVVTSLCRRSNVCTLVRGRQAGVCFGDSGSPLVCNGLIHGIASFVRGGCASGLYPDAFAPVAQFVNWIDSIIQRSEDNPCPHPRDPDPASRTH
Kind of assay: Inhibition of human neutrophil elastase by enzymatic assay.

Assay [2] addresses T2, NAD-dependent protein deacetylase sirtuin-2 (Homo sapiens, UniProt Q8IXJ6).
T2 sequence (Q8IXJ6 whole entry): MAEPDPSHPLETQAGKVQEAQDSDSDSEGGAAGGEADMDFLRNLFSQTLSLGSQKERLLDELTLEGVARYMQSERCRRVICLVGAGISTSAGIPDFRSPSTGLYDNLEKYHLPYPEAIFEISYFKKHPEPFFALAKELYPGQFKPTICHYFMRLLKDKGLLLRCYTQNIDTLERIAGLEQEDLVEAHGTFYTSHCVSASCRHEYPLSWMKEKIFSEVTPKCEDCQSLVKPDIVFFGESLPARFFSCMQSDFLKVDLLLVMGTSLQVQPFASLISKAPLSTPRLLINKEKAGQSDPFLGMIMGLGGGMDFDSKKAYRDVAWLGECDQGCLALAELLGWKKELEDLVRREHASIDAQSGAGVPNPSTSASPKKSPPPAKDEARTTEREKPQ
Kind of assay: Inhibition of SIRT2 (unknown origin) activity.

The next assay is filed under the species Homo sapiens. Briefly: Inhibition of CG (unknown origin).
The next assay has as its target T3, Myeloblastin (Homo sapiens, UniProt P24158).
T3 sequence (P24158 whole entry): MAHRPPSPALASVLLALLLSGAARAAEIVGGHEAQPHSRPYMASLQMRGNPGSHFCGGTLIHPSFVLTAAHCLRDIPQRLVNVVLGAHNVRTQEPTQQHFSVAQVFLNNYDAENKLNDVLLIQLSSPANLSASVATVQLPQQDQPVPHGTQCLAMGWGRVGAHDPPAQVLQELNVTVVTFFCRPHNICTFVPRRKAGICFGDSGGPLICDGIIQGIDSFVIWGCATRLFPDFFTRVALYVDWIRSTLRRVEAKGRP
Briefly: Inhibition of PR3 (unknown origin) activity.

The structures appear in SMILES notation. Activity calls are given as the source filed them. No cut-off for these calls is given here. Some results are limits rather than exact numbers.

In general, IC50 refers to the concentration at which inhibition is half-maximal. A high value points to a need for much substance. For the molecule `CC(NC(=O)c1ccccc1/N=N/c1c(O)ccc2ccccc12)c1ccccc1` (configuration not stated), the IC50 in assay [1] is > 10 µM; with Neutrophil it was > 10 µM; on Neutrophil elastase it was 12.1 µM.

As to `COC(=O)[C@H](Cc1ccccc1)NC(=O)c1ccccc1/N=C/c1c(O)ccc2ccccc12`, the half-maximal inhibitory concentration (IC50) in assay [1] was 2.09 µM; in the assay on Neutrophil, 2.95 µM; against Neutrophil elastase, > 50 µM.

Turning to `O=C(N[C@@H](Cc1ccccc1)C(=O)O)c1ccccc1/N=N/c1c(O)ccc2ccccc12`, the IC50 in assay [1] is 1.07 µM; in the assay with Neutrophil it was 1.31 µM; against Neutrophil elastase, 21 µM.

On to `COC(=O)[C@H](NC(=O)c1ccccc1/N=C/c1ccccc1O)c1ccccc1`, for which the values for the IC50 (in assay [1]; in the assay on Neutrophil; against Neutrophil elastase) were 4.98 µM, 4.36 µM and > 50 µM, respectively.

Take `O=C(N[C@H](C(=O)O)c1ccccc1)c1ccccc1/N=N/c1c(O)ccc2ccccc12`: the IC50 in assay [1] came to 2.25 µM; in the assay with Neutrophil it was 2.02 µM; against Neutrophil elastase, 16.8 µM.

As to `COC(=O)[C@@H](Cc1ccccc1)NC(=O)c1ccccc1/N=C/c1c(O)ccc2ccccc12`, the IC50 was 1.59 µM in assay [1], 4.27 µM with Neutrophil and > 50 µM against Neutrophil elastase.

With `O=C(N[C@H](Cc1ccccc1)C(=O)O)c1ccccc1/N=N/c1c(O)ccc2ccccc12`, the IC50 in assay [1] is 1.54 µM; in the assay on Neutrophil it was 1.61 µM; on Neutrophil elastase it was 20.7 µM.

`CC(NC(=O)c1ccccc1/N=C/c1c(O)ccc2ccccc12)c1ccccc1` (configuration not stated) [SIRTINOL]: the concentration for half-maximal inhibition (IC50) in assay [1] was 1.92 µM; with Neutrophil, > 10 µM; at Neutrophil elastase it was 24.5 µM.

As to `C[C@@H](NC(=O)c1ccccc1/N=C/c1c(O)ccc2ccccc12)C1CCCCC1`, the concentration for half-maximal inhibition (IC50) in assay [1] was > 10 µM; in the assay on Neutrophil it was > 10 µM; against Neutrophil elastase it was > 50 µM.

For the molecule `O=C(N[C@@H](C(=O)O)c1ccccc1)c1ccccc1/N=N/c1c(O)ccc2ccccc12`, the IC50 in assay [1] was determined as 2.36 µM; in the assay with Neutrophil, 1.12 µM; against Neutrophil elastase, 20.4 µM.

Turning to `COC(=O)[C@@H](Cc1ccccc1)NC(=O)c1ccccc1/N=N/c1c(O)ccc2ccccc12`, the IC50 in assay [1] is > 10 µM; against Neutrophil elastase, 19.3 µM.

For `COC(=O)[C@@H](NC(=O)c1ccccc1/N=C/c1ccccc1O)c1ccccc1`, the 50% inhibitory concentration (IC50) was 8.73 µM in assay [1], > 10 µM in the assay on Neutrophil and > 50 µM at Neutrophil elastase.

In the case of `O=C(N[C@H](C(=O)O)c1ccccc1)c1ncccc1/N=N/c1c(O)ccc2ccccc12`, the IC50 in assay [1] came out at 1.86 µM; with Neutrophil, 0.9 µM; at Neutrophil elastase, 4.91 µM; in assay [2], 2.42 µM; against Myeloblastin, 20.7 µM. Also, the inhibition result in the assay listed under Homo sapiens was “inactive”.

Consider `COC(=O)[C@@H](NC(=O)c1ncccc1/N=N/c1c(O)ccc2ccccc12)c1ccccc1`, for which the IC50 in assay [1] is > 10 µM; in the assay with Neutrophil it was > 10 µM; on Neutrophil elastase, 22.4 µM.

In the case of `O=C(N[C@H](C(=O)O)c1ccccc1)c1ccccc1/N=C/c1c(O)ccc2ccccc12`, the IC50 was > 10 µM in assay [1], 2.5 µM with Neutrophil and > 50 µM against Neutrophil elastase.

In the case of `COC(=O)[C@@H](NC(=O)c1ccccc1/N=N/c1c(O)ccc2ccccc12)c1ccccc1`, the 50% inhibitory concentration (IC50) in assay [1] is > 10 µM; in the assay on Neutrophil it was > 10 µM; against Neutrophil elastase, 18 µM.

Consider `COC(=O)[C@@H](NC(=O)c1ccccc1/N=C/c1c(O)ccc2ccccc12)c1ccccc1`, for which the results for the IC50 (in assay [1]; in the assay on Neutrophil; on Neutrophil elastase) were 3.84 µM, 3.56 µM and > 50 µM, respectively.

Consider `COC(=O)[C@H](Cc1ccccc1)NC(=O)c1ccccc1/N=N/c1c(O)ccc2ccccc12`, for which the IC50 is > 10 µM in assay [1] and 31.2 µM at Neutrophil elastase.

On to `CC(NC(=O)c1ccccc1NCc1c(O)ccc2ccccc12)c1ccccc1` (configuration not stated), for which the IC50 in assay [1] is 6.44 µM; in the assay on Neutrophil, > 10 µM; at Neutrophil elastase it was 26.2 µM.

Consider `CC(NC(=O)c1ccccc1/N=C/c1ccccc1O)c1ccccc1` (configuration not stated), for which the half-inhibitory concentration (IC50) is > 10 µM in assay [1], 6.07 µM with Neutrophil and > 50 µM against Neutrophil elastase.

Turning to `COC(=O)[C@H](NC(=O)c1ccccc1/N=C/c1c(O)ccc2ccccc12)c1ccccc1`, the IC50 turned out to be 1.76 µM in assay [1], 5.56 µM with Neutrophil and 38.8 µM against Neutrophil elastase.

Regarding `COC(=O)[C@H](NC(=O)c1ccccc1/N=N/c1c(O)ccc2ccccc12)c1ccccc1`, the IC50 in assay [1] was > 10 µM; in the assay on Neutrophil it was > 10 µM; at Neutrophil elastase, 18.9 µM.

These data come from ChEMBL document CHEMBL5584205 (Bioorg Med Chem Lett, 2024).
